Assay results published in article PMC8537901, “Progesterone Metabolism by Human and Rat Hepatic and Intestinal Tissue” (Pharmaceutics, 2021).

Legend:
[1] = Human cytosol stability assay, liver cytosol; conditions: for effect of inhibitor on rate of progesterone depletion: presence of NADPH, inhibitor 100 µM; for half-life at 1 µM: human, t1/2 (min)
Protocol: (§3) Progesterone stability was assessed in intestinal and liver cytosol in the presence or absence of NADPH cofactor and specific enzyme inhibitors. For both intestinal and liver cytosol, the protein concentration was adjusted to 0.5 mg/mL. Both human liver and intestinal cytosol (with 0.1 mM EDTA) were then pre-incubated for 10 min in a thermomixer comfort by Eppendorf in an RNAse/DNAse 96-well plate until reaching a temperature of 37 °C. Next, a final concentration of 100 µM of enzyme inhibitors were added to the cytosol. […] The enzyme inhibitors used during this study were: Epalrestat (AKR1B1 inhibitor), Diazepam (AKR1C inhibitor), Finasteride (AKR1D1 inhibitor), Diazepam + Flufenamic Acid (AKR1C inhibitor cocktail), Menadione (aldehyde oxidase inhibitor) and Allopurinol (xanthine oxidase inhibitor).
(§4) Next, the mixtures were incubated for an additional 5 min, and NADPH was added at a final concentration of 1 mM. Finally, progesterone (1 µM) was added and mixed by pipetting to initiate the reaction. Immediately following reaction initiation, a 50 µL sample was taken. The sample was then diluted in 100 µL of acetonitrile to terminate enzymatic reaction. Samples were centrifuged at 4 °C and 2500 rpm for 30 min. Following centrifugation, the supernatant was removed and diluted 1:1 with milli-Q water. […] This process was followed for sampling at all required time intervals.
(§5) Liquid chromatography with tandem mass spectrometry (LC MS/MS) was used to analyse samples obtained from both cytosol and homogenate stability assays (see Appendix A Figure A1 for example spectra). […] The column used was Aquity HSS T3 (1.8 µm) 2.1 × 50 mm (Water Ltd., Herts, UK), and the samples were run with an injection volume of 8 µL at 70 °C. A solvent system and gradient with a flow rate of 600 µL/minute was used to perform this analysis. The mobile phase consisted of 10 mM ammonium formate with 0.1% v/v formic acid in water (A) and acetonitrile (B).
(§6) The percent of substrate present at each timepoint relative to the 0 min sample was calculated from the LC-MS/MS peak area ratios (compound peak area/internal standard peak area). […] The Kolmogorov–Smirnov test was used to assess normality followed by Student’s t-test. Results were considered statistically significant when p < 0.05.

[2] = Human cytosol stability assay, intestinal cytosol; conditions: for half-life at 1 µM: human, human intestinal cytosol, t1/2 (min)
Protocol: as §3, §4, §5, §6

[3] = Tissue homogenate stability assay, human liver homogenate; assay type: in vitro ADME; conditions: for half-life: human, liver homogenate
Protocol: (§1) Progesterone stability was determined in rat and human intestinal mucosa and liver homogenates. In addition, progesterone was incubated in stock solution containing phosphate-buffered saline, 0.1% Tween80 and 1% DMSO. […] Stability assays were carried out either in the presence or absence of 1mM of the cofactor NADPH. The physiological concentration of NADPH was approximately 100 µM [26]. However, for the purpose of this research, a concentration of 1 mM was used to ensure an excess of co-factor was available and not rate-limited throughout the incubation period.
(§2) The protein concentration for the rat and human liver and intestinal homogenates was adjusted to 5 mg/mL. […] A final concentration of 1 µM progesterone and 1 mM NADPH (where required) was added to the homogenate, and samples were immediately taken (t–0). Next, the homogenate solution was incubated with shaking (700 rpm) at 37 °C, and further samples were taken at timed intervals. To stop the enzymatic reaction, samples were immediately diluted in ice-cold acetonitrile at a ratio of 1:3 sample:acetonitrile. The samples were then centrifuged at 3000 rpm for 30 min to pellet the homogenates.

[4] = Stability in control media (phosphate-buffered saline, 0.1% Tween80, 1% DMSO, pH 7.4); assay type: physicochemical
Protocol: as §1

[5] = Tissue homogenate stability assay, rat intestinal homogenate; assay type: in vitro ADME; conditions: for half-life: Sprague Dawley, rat
Protocol: as §1, §2

[6] = Tissue homogenate stability assay, rat liver homogenate; assay type: in vitro ADME; conditions: for half-life: Sprague Dawley, rat
Protocol: as §1, §2

[7] = Tissue homogenate stability assay, human intestinal homogenate; assay type: in vitro ADME; conditions: for half-life: human
Protocol: as §1, §2

[8] = human intestinal cytosol + NADPH + AKR1B inhibitor (Epalrestat 100 µM)
[9] = human intestinal cytosol + NADPH, no inhibitor
[10] = human liver cytosol + NADPH + AKR1B1 inhibitor (Epalrestat 100 µM)
[11] = human liver cytosol + NADPH + AKR1C1 cocktail (Diazepam + Flufenamic Acid)
[12] = human liver cytosol + NADPH, no inhibitor
[13] = human liver homogenate, no NADPH
[14] = rat intestinal homogenate + 1 mM NADPH
[15] = rat liver homogenate + 1 mM NADPH
[16] = human intestinal homogenate + 1 mM NADPH
[17] = human intestinal homogenate, no NADPH

Compound: CC1=CC(=O)c2ccccc2C1=O [Menadione]
- effect of inhibitor on rate of progesterone depletion ([1]; human liver cytosol): not deemed significant

Compound: CC(=O)[C@H]1CC[C@H]2[C@@H]3CCC4=CC(=O)CC[C@]4(C)[C@H]3CC[C@]12C [Progesterone]
- t1/2 [2, 8]: 3.0687 ± 0.3158 h
- % Drug Remaining After 60 min [2, 8]: 80.87 ± 7.84%
- % Drug Remaining After 60 min ([2]; human intestinal cytosol + NADPH + AKR1C1 inhibitor (Diazepam 100 µM)): 77.38 ± 6.37%
- % Drug Remaining After 60 min ([2]; human intestinal cytosol + NADPH + AKR1C cocktail (Diazepam + Flufenamic Acid)): 73.56 ± 3.69%
- % Drug Remaining After 60 min ([2]; human intestinal cytosol + NADPH + AKR1D1 inhibitor (Finasteride 100 µM)): 79.56 ± 4.44%
- t1/2 [2, 9]: 2.1587 ± 0.0458 h
- % Drug Remaining After 60 min [2, 9]: 72.51 ± 6.48%
- half-life at 1 µM [2, 9]: 2.16 h
- half-life at 1 µM ([2]; with Epalrestat (AKR1B inhibitor), 100 µM, human intestinal cytosol + NADPH + AKR1B inhibitor (Epalrestat 100 µM)): 3.07 h
- half-life at 1 µM ([2]; with Finasteride (AKR1D1 inhibitor), 100 µM, human intestinal cytosol + NADPH + AKR1D1 inhibitor (Finasteride 100 µM)): 3.03 ± 0.0732 h
- t1/2 [1, 10]: 0.3135 ± 0.016 h
- % Drug Remaining After 60 min [1, 10]: 6.6 ± 6.24%
- t1/2 [1, 11]: 0.5927 ± 0.111 h
- % Drug Remaining After 60 min [1, 11]: 33.5 ± 1.72%
- % Drug Remaining After 60 min ([1]; human liver cytosol + NADPH + AKR1C1 inhibitor (Diazepam 100 µM)): 0.11 ± 0.04%
- % Drug Remaining After 60 min ([1]; human liver cytosol + NADPH + AKR1D1 inhibitor (Finasteride 100 µM)): 7.85 ± 6.31%
- % Drug Remaining After 60 min ([1]; human liver cytosol + NADPH + AOX inhibitor (Menadione 100 µM)): 0.97 ± 0.88%
- t1/2 [1, 12]: 0.2288 ± 0.0135 h
- % Drug Remaining After 60 min [1, 12]: 0.04 ± 0.01%
- % Drug Remaining After 60 min ([1]; human liver cytosol, absence of NADPH, + AOX inhibitor (Menadione 100 µM)): 69.14 ± 2.91%
- % Drug Remaining After 60 min ([1]; human liver cytosol, absence of NADPH, + XAO inhibitor (Allopurinol 100 µM)): 57.09 ± 2.01%
- half-life at 1 µM ([1]; human liver cytosol, human liver cytosol + NADPH + AKR1C1 cocktail (Diazepam + Flufenamic Acid)): 0.593 h
- half-life at 1 µM ([1]; human liver cytosol, human liver cytosol + NADPH, no inhibitor): 0.217 h
- half-life at 1 µM ([1]; human liver cytosol, liver cytosol section (Figure 4), absence of NADPH, no inhibitor, line printed as Human intestinal Cytosol): 1.72 ± 0.156 h
- half-life at 1 µM ([1]; human liver cytosol, with Allopurinol (xanthine oxidase inhibitor), 100 µM, human liver cytosol, absence of NADPH, + XAO inhibitor (Allopurinol 100 µM)): 1.66 ± 0.152 h
- half-life at 1 µM ([1]; human liver cytosol, with Diazepam (AKR1C1 inhibitor), 100 µM, human liver cytosol + NADPH + AKR1C1 inhibitor (Diazepam 100 µM)): 0.235 ± 0.004 h
- half-life at 1 µM ([1]; human liver cytosol, with Epalrestat (AKR1B1 inhibitor), 100 µM, human liver cytosol + NADPH + AKR1B1 inhibitor (Epalrestat 100 µM)): 0.3 h
- half-life at 1 µM ([1]; human liver cytosol, with Finasteride (AKR1D1 inhibitor), 100 µM, human liver cytosol + NADPH + AKR1D1 inhibitor (Finasteride 100 µM)): 0.308 ± 0.0283 h
- half-life at 1 µM ([1]; human liver cytosol, with Menadione (aldehyde oxidase inhibitor), 100 µM, human liver cytosol, absence of NADPH, + AOX inhibitor (Menadione 100 µM)): 2.21 ± 0.0782 h
- half-life at 1 µM ([1]; liver cytosol, with Menadione 100 µM (aldehyde oxidase inhibitor), human liver cytosol + NADPH + AOX inhibitor (Menadione 100 µM)): 0.258 ± 0.0338 h
- % Drug Remaining After 60 min ([1]; liver cytosol section (Figure 4), absence of NADPH, no inhibitor, line printed as Human intestinal Cytosol): 56.6 ± 2.07%
- % Drug Remaining After 60 min ([3]; human liver homogenate + 1 mM NADPH): 0.27 ± 0.26%
- % of original concentration remaining ([3]; human liver homogenate + NADPH, within 10 min of incubation): less than 2%
- % of the drug remaining ([3]; human liver homogenate, absence of NADPH, after two hours of incubation): over 40%
- % Drug Remaining After 60 min [3, 13]: 43.32 ± 4.84%
- half-life ([3]; human liver homogenate + 1 mM NADPH, 1 µM progesterone, 5 mg/mL protein, 37 °C): 0.045 ± 0.000833 h
- half-life [3, 13]: 0.649 ± 0.195 h
- % detectable in control media ([4]; after 2 h in control media): 99%
- time stable in stock solution ([4]; phosphate-buffered saline, 0.1% Tween80, 1% DMSO, pH 7.4, 1 µM): up to 6 h
- half-life ([5]; rat intestinal homogenate, pH 7.4, rat intestinal homogenate + 1 mM NADPH): 3.29 h
- half-life ([5]; rat intestinal homogenate, pH 7.4, rat intestinal homogenate, no NADPH): 5.87 ± 0.614 h
- t1/2 [5, 14]: 3.2938 ± 0.0485 h
- % Drug Remaining After 60 min [5, 14]: 76.67 ± 4.72%
- % Drug Remaining After 60 min ([5]; rat intestinal homogenate + 1 mM NADPH, listed as progesterone): 77%
- % Drug Remaining After 60 min ([5]; rat intestinal homogenate, no NADPH): 90.93 ± 2.19%
- % Drug Remaining After 60 min ([5]; rat intestinal homogenate, no NADPH, listed as progesterone): over 90%
- half-life ([6]; liver homogenate, pH 7.4, rat liver homogenate, no NADPH): 0.663 ± 0.169 h
- half-life ([6]; rat liver homogenate, pH 7.4, rat liver homogenate + 1 mM NADPH): 0.045 h
- t1/2 [6, 15]: 2.72 ± 0.05 min
- % Drug Remaining After 60 min [6, 15]: 0.03 ± 0.0005%
- % of original concentration remaining ([6]; rat liver homogenate + NADPH, within 10 min of incubation): less than 2%
- % of the drug remaining ([6]; rat liver homogenate, absence of NADPH, after two hours of incubation): over 40%
- % Drug Remaining After 60 min ([6]; rat liver homogenate, no NADPH): 46.04 ± 0.69%
- t1/2 [7, 16]: 2.6203 ± 0.4568 h
- % Drug Remaining After 60 min [7, 16]: 73.92 ± 5.11%
- % Drug Remaining After 60 min ([7]; human intestinal homogenate + 1 mM NADPH, listed as progesterone): 74%
- % Drug Remaining After 60 min [7, 17]: 75.82 ± 9.35%
- % Drug Remaining After 60 min ([7]; human intestinal homogenate, no NADPH, listed as progesterone): 76%
- half-life ([7]; human intestinal homogenate, human intestinal homogenate + 1 mM NADPH): 2.62 h
- half-life [7, 17]: 2.6 ± 0.229 h

Compound: CN1C(=O)CN=C(c2ccccc2)c2cc(Cl)ccc21 [diazepam, Diazepam]
- effect of inhibitor on rate of progesterone depletion ([1]; human liver cytosol): no significant difference
